Results reported in paper PMC9239059, “Structure-Guided Synthesis of FK506 and FK520 Analogs with Increased Selectivity Exhibit In Vivo Therapeutic Efficacy against Cryptococcus” (mBio, 2022).
Values after ≈ are worked out from the molar mass of the structure shown.

Tests used:
FKBP12 [1] = biological target: T1, FKBP12 (Aspergillus fumigatus, UniProt Q4WLV6); assay: BLI, compound-mediated ternary complex formation, […] compound; format: binding
T1 construct: gene fpr1A; biotinylated (Avi-tagged) FKBP12; with CnA-CnB-calmodulin
T1 sequence (Q4WLV6 whole entry): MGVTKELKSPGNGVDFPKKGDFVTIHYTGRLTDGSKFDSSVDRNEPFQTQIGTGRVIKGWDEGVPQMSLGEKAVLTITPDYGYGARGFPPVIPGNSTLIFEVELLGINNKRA
T1 sequence (Q4WUR1 whole entry partner): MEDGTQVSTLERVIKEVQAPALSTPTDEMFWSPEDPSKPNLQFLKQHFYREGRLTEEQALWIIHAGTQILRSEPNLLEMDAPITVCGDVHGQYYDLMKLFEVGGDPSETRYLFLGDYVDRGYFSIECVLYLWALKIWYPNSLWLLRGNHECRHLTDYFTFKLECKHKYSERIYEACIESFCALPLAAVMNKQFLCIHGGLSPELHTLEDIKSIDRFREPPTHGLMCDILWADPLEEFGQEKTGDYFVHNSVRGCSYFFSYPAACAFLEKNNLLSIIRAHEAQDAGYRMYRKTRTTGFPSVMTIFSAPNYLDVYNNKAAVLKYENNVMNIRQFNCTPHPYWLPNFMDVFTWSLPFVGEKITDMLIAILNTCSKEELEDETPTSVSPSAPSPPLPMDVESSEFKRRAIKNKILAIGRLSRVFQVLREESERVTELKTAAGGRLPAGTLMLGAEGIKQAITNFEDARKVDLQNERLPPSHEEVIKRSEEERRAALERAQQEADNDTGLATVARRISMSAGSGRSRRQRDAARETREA

[2] = system: T2, Cryptococcus neoformans (H99); assay: microbe, parasite or virus in culture; set-up: CLSI M27-A3 broth microdilution in RPMI 1640 at 37 C, growth inhibition of C. neoformans (MIC); conditions: Cryptococcus neoformans, read-out: MIC (μg/mL) against: / Cryptococcus neoformans (H99)^a
T2 construct: H99
Experimental: In vitro antifungal activities of FK506, FK520, and analogs were assessed in RPMI 1640 (Sigma-Aldrich) for all strains tested. MICs/minimum effective concentrations (MECs) for each drug were measured using modified Clinical and Laboratory Standards Institute (CLSI) M38-A2 and M27-A3 standard in vitro antifungal susceptibility protocols. Broth microdilution assays for MIC/MEC assessment were performed as described previously ([33]). All antifungal assays with C. neoformans were performed at 37°C. Antifungal susceptibility testing for C. albicans was performed in the presence of a uniform 1 μg/mL concentration of fluconazole to sensitize the organism to calcineurin inhibition. MICs/minimum effective concentrations (MECs) were determined for each of the novel analogs against the three major human fungal pathogens, A. fumigatus, C. neoformans, and C. albicans. […] Thus, analogs of FK506 and FK520 can tolerate up to 100-fold reduction in antifungal activity and still be considered for in vivo testing. For C. neoformans, MICs were the most uniform and ranged from 0.2 to 2 μg/mL, which is between 4- and 40-fold reduced for antifungal activity. C. albicans MICs ranged from 0.2 to 6.25 μg/mL, which is between 10- and 312.5-fold reduced for activity. Despite being one of the most difficult to treat fungal infections, all six analogs were active against A. fumigatus with MECs ranging from 1 to 2 μg/mL or a 62.5- to 125-fold reduction in activity.

FKBP12 [3] = biological target: T3, FKBP12 (Candida albicans, UniProt C4YFI3+C4YS24+P28870); assay: BLI, compound-mediated ternary complex formation, […] compound; format: binding
T3 construct: gene RBP1; biotinylated (Avi-tagged) FKBP12; with CnA-CnB-calmodulin
T3 sequence (P28870 whole entry): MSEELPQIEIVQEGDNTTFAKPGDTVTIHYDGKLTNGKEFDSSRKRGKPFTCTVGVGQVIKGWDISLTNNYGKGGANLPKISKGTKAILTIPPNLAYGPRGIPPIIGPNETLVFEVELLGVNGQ
T3 sequence (C4YFI3 54-445): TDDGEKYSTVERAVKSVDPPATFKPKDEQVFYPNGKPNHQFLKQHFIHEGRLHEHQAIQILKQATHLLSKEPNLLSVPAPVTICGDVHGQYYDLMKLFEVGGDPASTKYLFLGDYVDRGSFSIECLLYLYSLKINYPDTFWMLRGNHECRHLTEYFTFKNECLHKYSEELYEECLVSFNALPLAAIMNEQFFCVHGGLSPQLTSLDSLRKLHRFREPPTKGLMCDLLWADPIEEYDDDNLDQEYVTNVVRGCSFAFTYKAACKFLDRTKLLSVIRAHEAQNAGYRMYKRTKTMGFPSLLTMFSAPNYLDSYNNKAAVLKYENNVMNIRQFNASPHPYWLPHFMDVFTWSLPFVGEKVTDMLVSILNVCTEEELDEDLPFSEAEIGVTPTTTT
T3 sequence (C4YS24 1-173): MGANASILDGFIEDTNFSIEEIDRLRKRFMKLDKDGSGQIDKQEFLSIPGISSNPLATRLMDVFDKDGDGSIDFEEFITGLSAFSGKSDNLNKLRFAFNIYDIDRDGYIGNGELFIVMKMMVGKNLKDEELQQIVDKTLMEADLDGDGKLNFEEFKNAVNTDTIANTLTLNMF
T3 sequence (P23286 whole entry partner): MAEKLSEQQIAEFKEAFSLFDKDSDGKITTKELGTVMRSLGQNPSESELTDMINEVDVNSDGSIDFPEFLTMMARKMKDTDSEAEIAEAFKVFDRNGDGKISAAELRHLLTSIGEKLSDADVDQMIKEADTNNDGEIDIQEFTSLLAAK

C=CC[C@@H]1/C=C(\C)C[C@H](C)C[C@H](OC)[C@H]2O[C@@](O)(C(=O)C(=O)N3CCCC[C@H]3C(=O)O[C@H](/C(C)=C/[C@@H]3CC[C@@H](O)[C@H](OC)C3)[C@H](C)[C@@H](O)C/C1=N/NC(=O)CC)[C@H](C)C[C@@H]2OC [JH-FK-02]
BLI, compound-mediated ternary complex formation, 10 μM compound (FKBP12 [1]): target complexes form in the presence of the analogs with affinities similar to those of the parent compounds
MIC [2]: 2 µg/mL (≈ 2.29 µM)
BLI, compound-mediated ternary complex formation, 10 μM compound (FKBP12 [3]): target complexes form in the presence of the analogs with affinities similar to those of the parent compounds
